Key:
GHSR1a [1] = target: T1, GHSR1a (Homo sapiens, UniProt Q92847); assay: Calcium FLIPR assay, GHSR-1a agonism; type: cell-based; set-up: Emax: unit not given here; conditions: HEK293/GHSR1a cells
T1 construct: expressed in transfected cells; host or cells: HEK293
In short: (§1)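 Cells stably carrying human GHSR1a were plated a day ahead, dye-loaded, then given test compound. Agonist activity was the calcium rise over 2 minutes after compound addition at t=20 sec; antagonist activity was the reduction of the response to 10 nM ghrelin added together with compound.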

GHSR1a [2] = target: T1, GHSR1a; assay: Calcium FLIPR assay, GHSR-1a antagonism (reduction of ghrelin response); type: cell-based; conditions: HEK293/GHSR1a cells, ghrelin 10 nM
In short: as §1

T1 sequence (Q92847 whole entry): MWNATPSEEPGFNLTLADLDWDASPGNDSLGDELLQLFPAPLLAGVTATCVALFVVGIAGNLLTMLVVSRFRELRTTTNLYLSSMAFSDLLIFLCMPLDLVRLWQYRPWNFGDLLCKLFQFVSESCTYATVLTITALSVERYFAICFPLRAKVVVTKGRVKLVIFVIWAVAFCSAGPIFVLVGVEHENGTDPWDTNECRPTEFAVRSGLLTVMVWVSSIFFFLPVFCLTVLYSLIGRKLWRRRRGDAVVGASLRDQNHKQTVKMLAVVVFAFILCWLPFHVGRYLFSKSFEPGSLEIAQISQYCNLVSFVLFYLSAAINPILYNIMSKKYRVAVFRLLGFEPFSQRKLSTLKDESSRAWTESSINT

Compound	EC50 (GHSR1a [1])	Emax (GHSR1a [1])	IC50 (GHSR1a [2])
CCOC(C#Cc1ccc(C(C)NC(=O)N(C)C2CCN(C)CC2)c(Cl)c1Cl)OCC (stereo not shown) [Compound H0757, 3-(1-(2,3-dichloro-4-(3,3-diethoxyprop-1-yn-1-yl)phenyl)ethyl)-1-methyl-1-(1-methylpiperidin-4-yl)urea]	654 nM	2704	159 nM
COC(=O)c1cncc(-c2ccc(C(C)NC(=O)N(C)C3CCN(C)CC3)c(Cl)c2Cl)c1 (stereo not shown) [Compound H0635, methyl 5-(2,3-dichloro-4-(1-(3-methyl-3-(1-methylpiperidin-4-yl)ureido)ethyl)phenyl)nicotinate]	> 30000 nM	–	1090 nM
CC(NC(=O)N(C)C1CCN(C)CC1)c1ccc(-c2cncc([N+](=O)[O-])c2)c(Cl)c1Cl (stereo not shown) [Compound H0766, 3-(1-(2,3-dichloro-4-(5-nitropyridin-3-yl)phenyl)ethyl)-1-methyl-1-(1-methylpiperidin-4-yl)urea]	> 30000 nM	–	171 nM
CC(NC(=O)N(C)C1CCN(C)CC1)c1ccc2c(NC3CC3)noc2c1 (stereo not shown) [Compound H0787, 3-(1-(3-(cyclopropylamino)benzo[d]isoxazol-6-yl)ethyl)-1-methyl-1-(1-methylpiperidin-4-yl)urea]	3000 nM	–	12000 nM
CCN1CCN(c2ncc(-c3ccc(C(C)NC(=O)N(C)C4CCN(C)CC4)c(Cl)c3Cl)cn2)CC1=O (stereo not shown) [Compound H0814, 3-(1-(2,3-dichloro-4-(2-(4-ethyl-3-oxopiperazin-1-yl)pyrimidin-5-yl)phenyl)ethyl)-1-methyl-1-(1-methylpiperidin-4-yl)urea]	15 nM	1097	926 nM
CNc1ncc(-c2ccc(C(C)NC(=O)N(C)C3CCN(C)CC3)c(Cl)c2Cl)cn1 (stereo not shown) [Compound H0806, 3-(1-(2,3-dichloro-4-(2-(methylamino)pyrimidin-5-yl)phenyl)ethyl)-1-methyl-1-(1-methylpiperidin-4-yl)urea]	6.8 nM	5751	1.2 nM
CC(NC(=O)N(C)C1CCN(C)CC1)c1ccc(-c2cnc(N3CCN(C)CC3)cn2)c(Cl)c1Cl (stereo not shown) [Compound H0822, 3-(1-(2,3-dichloro-4-(5-(4-methylpiperazin-1-yl)pyrazin-2-yl)phenyl)ethyl)-1-methyl-1-(1-methylpiperidin-4-yl)urea]	> 30000 nM	–	1200 nM
COc1cncc(-c2ccc(C(C)NC(=O)N(C)C3CCN(C)CC3)c(Cl)c2Cl)n1 (stereo not shown) [Compound H0738, 3-(1-(2,3-dichloro-4-(6-methoxypyrazin-2-yl)phenyl)ethyl)-1-methyl-1-(1-methylpiperidin-4-yl)urea]	> 30000 nM	–	696 nM
CC(NC(=O)N(C)C1CCN(C)CC1)c1cnc(Cl)c(Cl)c1Cl (stereo not shown) [Compound H0876, 1-methyl-1-(1-methylpiperidin-4-yl)-3-(1-(4,5,6-trichloropyridin-3-yl)ethyl)urea]	> 30000 nM	–	130 nM
COC(=O)/C=C/c1ccc(C(C)NC(=O)N(C)C2CCN(C)CC2)c(Cl)c1Cl (stereo not shown) [Compound H0641, methyl (E)-3-(2,3-dichloro-4-(1-(3-methyl-3-(1-methylpiperidin-4-yl)ureido)ethyl)phenyl)acrylate]	35 nM	1690	18 nM
C#Cc1ccc(C(CC2CC2)NC(=O)N(OC)C2CCN(C)CC2)c(Cl)c1Cl (stereo not shown) [Compound H0740, 3-(2-cyclopropyl-1-(2,3-dichloro-4-ethynylphenyl)ethyl)-1-methoxy-1-(1-methylpiperidin-4-yl)urea]	1.5 nM	3620	7 nM
CN1CCC(N(O)C(=O)NC(CC2CC2)c2ccc(-c3cnccn3)c(Cl)c2Cl)CC1 (single isomer, unassigned) [Compound H0781, 3-(2-cyclopropyl-1-(2,3-dichloro-4-(pyrazin-2-yl)phenyl)ethyl)-1-hydroxy-1-(1-methylpiperidin-4-yl)urea]	420 nM	4210	95 nM
CC(NC(=O)N(C)C1CCN(C)CC1)c1ccc(-c2cnc(O)nc2)c(Cl)c1Cl (stereo not shown) [Compound H0797, 3-(1-(2,3-dichloro-4-(2-hydroxypyrimidin-5-yl)phenyl)ethyl)-1-methyl-1-(1-methylpiperidin-4-yl)urea]	1800 nM	2879	594 nM
C=Cc1cncc(-c2ccc(C(C)NC(=O)N(C)C3CCN(C)CC3)c(Cl)c2Cl)c1 (stereo not shown) [Compound H0706, 3-(1-(2,3-dichloro-4-(5-vinylpyridin-3-yl)phenyl)ethyl)-1-methyl-1-(1-methylpiperidin-4-yl)urea]	91 nM	2111	116 nM
CN1CCC(N(C)C(=O)NC(CO)c2ccc(-c3cnccn3)c(Cl)c2Cl)CC1 (stereo not shown) [Compound H0924, 3-(1-(2,3-dichloro-4-(pyrazin-2-yl)phenyl)-2-hydroxyethyl)-1-methyl-1-(1-methylpiperidin-4-yl)urea]	> 30000 nM	–	300 nM
CCON(C(=O)NC(C)c1ccc(-c2cnccn2)c(Cl)c1Cl)C1CCN(C)CC1 (stereo not shown) [Compound H0750, 3-(1-(2,3-dichloro-4-(pyrazin-2-yl)phenyl)ethyl)-1-ethoxy-1-(1-methylpiperidin-4-yl)urea]	> 30000 nM	–	177 nM

Compound	EC50 (GHSR1a [1])	Emax (GHSR1a [1])	IC50 (GHSR1a [2])
CC(NC(=O)N(C)C1CCN(C)CC1)c1ccc(-c2ccoc2)c2ccccc12 (stereo not shown) [Compound H0598, 3-(1-(4-(furan-3-yl)naphthalen-1-yl)ethyl)-1-methyl-1-(1-methylpiperidin-\4-yl)urea]	271 nM	–	63 nM
CC(NC(=O)N(C)C1CCN(C)CC1)c1ccc(-c2ccc(C#N)nc2)c(Cl)c1Cl (stereo not shown) [Compound H0616, 3-(1-(2,3-dichloro-4-(6-cyanopyridin-3-yl)phenyl)ethyl)-1-methyl-1-(1-methylpiperidin-4-yl)urea]	580 nM	–	132 nM
CC(NC(=O)N(C)C1CCN(C)CC1)c1ccc(-c2cnc(C#N)nc2)c(Cl)c1Cl (stereo not shown) [Compound H0802, 3-(1-(2,3-dichloro-4-(2-cyanopyrimidin-5-yl)phenyl)ethyl)-1-methyl-1-(1-methylpiperidin-4-yl)urea]	153 nM	4149	99 nM
COc1ccc(C(NC(=O)N(C)C2CCN(C)CC2)C(N)=O)c(Cl)c1Br (stereo not shown) [Compound H0659, 2-(3-bromo-2-chloro-4-methoxyphenyl)-2-(3-methyl-3-(1-methylpiperidin-4-yl)ureido)acetamide]	353 nM	200	390 nM
CC(NC(=O)N(C)C1CCN(C)CC1)c1ccc(-c2cnccn2)c2ccccc12 (stereo not shown) [Compound H0850, 1-methyl-1-(1-methylpiperidin-4-yl)-3-(1-(4-(pyrazin-2-yl)naphthalen-1-yl)ethyl)urea]	> 30000 nM	–	1200 nM
CC(C)Oc1ccc(-c2ccc(C(C)NC(=O)N(C)C3CCN(C)CC3)c(Cl)c2Cl)cn1 (stereo not shown) [Compound H0608, 3-(1-(2,3-dichloro-4-(6-isopropoxypyridin-3-yl)phenyl)ethyl)-1-methyl-1-(1-methylpiperidin-4-yl)urea]	422 nM	–	69 nM
CC(NC(=O)N(C)C1CCN(C)CC1)c1ccc(-c2cccc3c2cnn3C)c(Cl)c1Cl (stereo not shown) [Compound H0512, 3-(1-(2,3-dichloro-4-(1-methyl-1H-indazol-4-yl)phenyl)ethyl)-1-methyl-1-(1-methylpiperidin-4-yl)urea]	> 30000 nM	–	495 nM
CC(NC(=O)N(C)C1CCN(C)CC1)c1ccc(-c2cn[nH]c2)c2ccccc12 (stereo not shown) [Compound H0576, 3-(1-(4-(1H-pyrazol-4-yl)naphthalen-1-yl)ethyl)-1-methyl-1-(1-methylpiperidin-4-yl)urea]	> 30000 nM	–	180 nM
CC(NC(=O)N(C)C1CCN(C)CC1)c1ccc(-c2nc(N3CCOCC3)nc(N3CCOCC3)n2)c(Cl)c1Cl (stereo not shown) [Compound H0796, 3-(1-(2,3-dichloro-4-(4,6-dimorpholino-1,3,5-triazin-2-yl)phenyl)ethyl)-1-methyl-1-(1-methylpiperidin-4-yl)urea]	3000 nM	1671	826 nM
COCCn1cc(-c2ccc(C(C)NC(=O)N(C)C3CCN(C)CC3)c(Cl)c2Cl)cn1 (stereo not shown) [Compound H0694, 3-(1-(2,3-dichloro-4-(1-(2-methoxyethyl)-1H-pyrazol-4-yl)phenyl)ethyl)-1-methyl-1-(1-methylpiperidin-4-yl)urea]	> 30000 nM	–	309 nM
CC(NC(=O)N(C)C1CCN(C)CC1)c1ccc(-c2cncc(-c3cnn(C)c3)c2)c(Cl)c1Cl (stereo not shown) [Compound H0748, 3-(1-(2,3-dichloro-4-(5-(1-methyl-1H-pyrazol-4-yl)pyridin-3-yl)phenyl)ethyl)-1-methyl-1-(1-methylpiperidin-4-yl)urea]	> 30000 nM	–	554 nM
CN1CCC(N(C)C(=O)NC(C)(C#N)c2ccc(-c3cncnc3)c(Cl)c2Cl)CC1 (stereo not shown) [Compound H0703, 3-(1-cyano-1-(2,3-dichloro-4-(pyrimidin-5-yl)phenyl)ethyl)-1-methyl-1-(1-methylpiperidin-4-yl)urea]	> 30000 nM	–	695 nM
CC[C@@H](NC(=O)N(C)C1CCN(C)CC1)c1ccc(-c2cnccn2)c(Cl)c1Cl (single isomer, unassigned) [Compound H0859]	> 30000 nM	–	2200 nM
CN1CCC(N(C)C(=O)NC2(c3ccc(-c4cncnc4)c(Cl)c3Cl)CCOCC2)CC1 [Compound H0727, 3-(4-(2,3-dichloro-4-(pyrimidin-5-yl)phenyl)tetrahydro-2H-pyran-4-yl)-1-methyl-1-(1-methylpiperidin-4-yl)urea]	> 30000 nM	–	3600 nM
CC(NC(=O)N(C)C1CCC(F)(F)CC1)c1ccc(-c2cncnc2)c(Cl)c1Cl (stereo not shown) [Compound H0587, 3-(1-(2,3-dichloro-4-(pyrimidin-5-yl)phenyl)ethyl)-1-(4,4-difluorocyclohexyl)-1-methylurea]	> 30000 nM	–	> 30000 nM

— patent publication US9546157B2, “Asymmetric piperidinyl-substituted ureas as medicines” (Helsinn Healthcare SA, priority 2014, dated 2017)
